Results reported in US9127040B2, “Regulation of sodium channels by PLUNC proteins” (The University of North Carolina at Chapel Hill, priority 2011, dated 2015).
Ends that are not written are not given here.

T1: αENaC (Homo sapiens, UniProt P37088)
T1 sequence (P37088 1-669): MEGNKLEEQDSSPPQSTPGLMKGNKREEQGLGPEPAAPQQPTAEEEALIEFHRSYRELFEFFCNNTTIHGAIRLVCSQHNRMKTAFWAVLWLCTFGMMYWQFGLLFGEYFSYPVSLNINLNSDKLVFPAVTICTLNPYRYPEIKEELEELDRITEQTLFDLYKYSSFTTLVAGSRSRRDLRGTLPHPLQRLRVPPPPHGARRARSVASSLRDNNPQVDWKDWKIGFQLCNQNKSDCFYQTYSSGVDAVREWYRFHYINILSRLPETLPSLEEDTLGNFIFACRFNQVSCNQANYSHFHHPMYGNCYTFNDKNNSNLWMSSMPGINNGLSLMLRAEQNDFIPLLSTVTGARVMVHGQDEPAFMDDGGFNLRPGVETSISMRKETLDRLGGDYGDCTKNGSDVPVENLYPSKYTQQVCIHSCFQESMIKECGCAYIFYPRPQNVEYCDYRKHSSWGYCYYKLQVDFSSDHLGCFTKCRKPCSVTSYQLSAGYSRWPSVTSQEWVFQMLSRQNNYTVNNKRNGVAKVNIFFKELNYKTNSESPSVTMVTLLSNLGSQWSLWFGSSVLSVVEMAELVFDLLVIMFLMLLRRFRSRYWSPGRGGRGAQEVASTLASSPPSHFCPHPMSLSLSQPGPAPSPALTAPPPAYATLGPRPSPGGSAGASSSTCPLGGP

T2: neutrophil elastase (Homo sapiens, UniProt P08246)
T2 sequence (P08246 30-267): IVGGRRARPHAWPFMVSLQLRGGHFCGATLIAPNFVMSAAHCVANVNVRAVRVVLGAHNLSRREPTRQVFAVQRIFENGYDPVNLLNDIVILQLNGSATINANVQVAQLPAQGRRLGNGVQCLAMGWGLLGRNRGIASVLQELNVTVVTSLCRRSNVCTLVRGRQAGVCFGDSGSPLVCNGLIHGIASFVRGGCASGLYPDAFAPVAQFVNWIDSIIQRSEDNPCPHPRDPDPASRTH

B1: SPLUNC1: human SPLUNC1 (SEQ ID NO:1), 256 amino acid secreted PLUNC family protein; rSPLUNC1 is the purified V5/6His-tagged recombinant form (protein, listed as Homo sapiens)
chain: MFQTGGLIVFYGLLAQTMAQFGGLPVPLDQTLPLNVNPALPLSPTGLAGSLTNALSNGLLSGGLLGILENLPLLDILKPGGGTSGGLLGGLLGKVTSVIPGLNNIIDIKVTDPQLLELGLVQSPDGHRLYVTIPLGIKLQVNTPLVGASLLRLAVKLDITAEILAVRDKQERIHLVLGDCTHSPGSLQISLLDGLGPLPIQGLLDSLTGILNKVLPELVQGNVCPLVNEVLRGLDITLVHDIVNMLIHGLQFVIKV
modifications: V5/6His tag in recombinant form
notes: rSPLUNC1 is the purified V5/6His-tagged recombinant form

Legend:
αENaC = biological target: T1, αENaC; test: Biotinylated peptide pull-down of ENaC subunits from HEK293T cells; type: binding; design: expressed in transfected cells; host or cells: HEK293T cells (lysate); details: subunits individually expressed
Experimental: HEK293T cells were transfected with double-tagged human ENaC subunits with HA and V5 epitopes at the N- and C-termini, respectively, in combination with wild-type untagged subunit cDNA. When all three ENaC subunits were expressed, 0.5 μg of each subunit were transfected per well. When expressed individually, 0.75 μg of the subunit were transfected per well. The transfected cells were lysed 24 h later using NP-40 buffer with 1× complete EDTA-free protease inhibitor (Roche, Basel, Switzerland). The lysate was centrifuged at 16,300×g for 15 minutes at 4° C. and the supernatant collected. Protein concentration was determined using the BCA assay and 500 μg of protein plus 0.25 mg peptide and 100 μL of neutravidin were added to a spin column and rotated end-over-end at 4° C. for 24 h (all ThermoFisher Scientific, Rockford, Ill., USA). Flow-through was collected by centrifugation at 1000×g for 30 s. […] The membrane was probed using 1:1000 anti-V5 antibody (Invitrogen, Carlsbad, Calif., USA) overnight at 4° C. in 3% fish gelatin in TBS-T. The blot was then incubated for 1 h at room temperature with an ECL sheep anti-mouse IgG secondary antibody and detected by ECL reagent (ThermoFisher Scientific, Waltham, Mass., USA) or by incubation with a goat anti-mouse IRDye secondary antibody and analyzed by an Odyssey infrared imaging system (LI-COR Biosciences, Lincoln, Nebr., USA).

neutrophil elastase = biological target: T2, neutrophil elastase; test: Cleavage of SPLUNC1 by neutrophil elastase at pH 6 vs 7.4; details: 10 μM SPLUNC1, 100 nM neutrophil elastase
Experimental: A, Neutrophil elastase activity is moderately greater at pH 6 than at pH 7.4. B, Coomassie-stained gel showing 10 μM SPLUNC1 exposed to 100 nM Neutrophil elastase at pH 6 and 7.4. The reaction was stopped at timed intervals.
Based on SPLUNC1 but not S18's pH-sensitivity (FIGS. 25B and 25C), we hypothesized that SPLUNC1 undergoes a conformational change, and binds to itself at pH 6. To test this, we exposed SPLUNC1 to neutrophil elastase at pH 6 vs. 7.4 (FIG. 26). […] This is consistent with our hypothesis that less SPLUNC1 is exposed at low pH.

Row | Molecule | binding to αENaC (pull-down) (αENaC) | cleavage by neutrophil elastase at pH 6 (neutrophil elastase)
1 | GGLPVPLDQTLPLNVNPA [S18] | without any detectable binding | –
2 | B1 | – | resistant to cleavage
